Data on one compound can be found in ChEMBL document CHEMBL5209568, “Membrane potential based assay for SLC5A11 using HEK-293 SLC5A11 OE cells” (2022).

The target in the test is T1, Sodium/myo-inositol cotransporter 2 (Homo sapiens, UniProt Q8WWX8).
T1 sequence (Q8WWX8 whole entry): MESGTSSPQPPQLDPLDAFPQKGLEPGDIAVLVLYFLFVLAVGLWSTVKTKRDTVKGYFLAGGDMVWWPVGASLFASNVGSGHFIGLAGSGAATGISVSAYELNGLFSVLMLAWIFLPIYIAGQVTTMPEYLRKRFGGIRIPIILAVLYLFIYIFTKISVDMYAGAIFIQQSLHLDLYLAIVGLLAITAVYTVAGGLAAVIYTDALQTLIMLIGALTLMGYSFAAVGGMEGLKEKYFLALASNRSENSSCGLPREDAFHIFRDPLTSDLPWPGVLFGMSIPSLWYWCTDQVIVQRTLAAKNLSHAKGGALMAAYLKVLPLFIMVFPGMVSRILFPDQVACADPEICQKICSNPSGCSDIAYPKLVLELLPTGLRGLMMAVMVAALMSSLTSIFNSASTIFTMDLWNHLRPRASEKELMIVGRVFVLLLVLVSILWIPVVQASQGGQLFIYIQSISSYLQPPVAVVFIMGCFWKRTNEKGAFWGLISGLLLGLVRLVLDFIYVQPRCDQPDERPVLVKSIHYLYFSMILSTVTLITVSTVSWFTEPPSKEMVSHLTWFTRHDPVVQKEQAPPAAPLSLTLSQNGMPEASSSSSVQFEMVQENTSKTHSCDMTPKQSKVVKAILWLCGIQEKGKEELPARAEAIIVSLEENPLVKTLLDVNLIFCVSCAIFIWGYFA
The experiment in a line: Substrate uptake by the Sodium/myo-inositol cotransporter 2 (SMIT2, SLC5A11) as assessed by the fluorescent FLIPR membrane potential dye in HEK-293 JumpIN-SLC5A11 cells (PubChem AID: 1794826). The format is functional, cell-based, HEK293.

With `O[C@H]1[C@@H](O)[C@@H](O)[C@@H](O)[C@@H](O)[C@@H]1O`, the 50% effective concentration (EC50) was determined as 104 µM.

One may read the EC50 as the concentration needed to bring the measured effect to its halfway point. Read a low EC50 as greater potency.
